Where two headings read alike, the source gives them in different places. Values belong to the molecule of their own block, whether it stands above or below them.
Target: T1, BRM (Homo sapiens, UniProt P51531)
T1 construct: In-Cell Western Screen of BRM Degradation in SW1573 Cells; endogenous in cells; host or cells: SW1573
Test: In-cell Western screen of BRM degradation in SW1573 cells (Dmax and DC50)
Assay type: cell-based
Procedure, shortened: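 Near-infrared imaging on a LI-COR Odyssey (800 and 680 nm channels) quantifies BRM remaining in fixed SW1573 cells. Cells are dosed for 18-20 h at 0.1% final DMSO, and degradation is expressed as Dmax and DC50.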

[1] = BRM degradation, SW1573 cells, Table 2D, read-out: *DC50
[2] = SW1573, % degraded, when tested at the top concentration of between 0.3 and 10 μM, read-out: BRM Dmax (%)
[3] = target protein degradation, read-out: BRM DC50
[4] = BRM degradation, SW1573 cells, read-out: DC50
[5] = BRM degradation, SW1573 cells, tested at the top concentration of between 0.3 and 10 μM, read-out: Dmax (%) (% degraded)
[6] = BRM degradation, SW1573 cells, read-out: Dmax (% degraded)

T1 sequence (P51531 whole entry): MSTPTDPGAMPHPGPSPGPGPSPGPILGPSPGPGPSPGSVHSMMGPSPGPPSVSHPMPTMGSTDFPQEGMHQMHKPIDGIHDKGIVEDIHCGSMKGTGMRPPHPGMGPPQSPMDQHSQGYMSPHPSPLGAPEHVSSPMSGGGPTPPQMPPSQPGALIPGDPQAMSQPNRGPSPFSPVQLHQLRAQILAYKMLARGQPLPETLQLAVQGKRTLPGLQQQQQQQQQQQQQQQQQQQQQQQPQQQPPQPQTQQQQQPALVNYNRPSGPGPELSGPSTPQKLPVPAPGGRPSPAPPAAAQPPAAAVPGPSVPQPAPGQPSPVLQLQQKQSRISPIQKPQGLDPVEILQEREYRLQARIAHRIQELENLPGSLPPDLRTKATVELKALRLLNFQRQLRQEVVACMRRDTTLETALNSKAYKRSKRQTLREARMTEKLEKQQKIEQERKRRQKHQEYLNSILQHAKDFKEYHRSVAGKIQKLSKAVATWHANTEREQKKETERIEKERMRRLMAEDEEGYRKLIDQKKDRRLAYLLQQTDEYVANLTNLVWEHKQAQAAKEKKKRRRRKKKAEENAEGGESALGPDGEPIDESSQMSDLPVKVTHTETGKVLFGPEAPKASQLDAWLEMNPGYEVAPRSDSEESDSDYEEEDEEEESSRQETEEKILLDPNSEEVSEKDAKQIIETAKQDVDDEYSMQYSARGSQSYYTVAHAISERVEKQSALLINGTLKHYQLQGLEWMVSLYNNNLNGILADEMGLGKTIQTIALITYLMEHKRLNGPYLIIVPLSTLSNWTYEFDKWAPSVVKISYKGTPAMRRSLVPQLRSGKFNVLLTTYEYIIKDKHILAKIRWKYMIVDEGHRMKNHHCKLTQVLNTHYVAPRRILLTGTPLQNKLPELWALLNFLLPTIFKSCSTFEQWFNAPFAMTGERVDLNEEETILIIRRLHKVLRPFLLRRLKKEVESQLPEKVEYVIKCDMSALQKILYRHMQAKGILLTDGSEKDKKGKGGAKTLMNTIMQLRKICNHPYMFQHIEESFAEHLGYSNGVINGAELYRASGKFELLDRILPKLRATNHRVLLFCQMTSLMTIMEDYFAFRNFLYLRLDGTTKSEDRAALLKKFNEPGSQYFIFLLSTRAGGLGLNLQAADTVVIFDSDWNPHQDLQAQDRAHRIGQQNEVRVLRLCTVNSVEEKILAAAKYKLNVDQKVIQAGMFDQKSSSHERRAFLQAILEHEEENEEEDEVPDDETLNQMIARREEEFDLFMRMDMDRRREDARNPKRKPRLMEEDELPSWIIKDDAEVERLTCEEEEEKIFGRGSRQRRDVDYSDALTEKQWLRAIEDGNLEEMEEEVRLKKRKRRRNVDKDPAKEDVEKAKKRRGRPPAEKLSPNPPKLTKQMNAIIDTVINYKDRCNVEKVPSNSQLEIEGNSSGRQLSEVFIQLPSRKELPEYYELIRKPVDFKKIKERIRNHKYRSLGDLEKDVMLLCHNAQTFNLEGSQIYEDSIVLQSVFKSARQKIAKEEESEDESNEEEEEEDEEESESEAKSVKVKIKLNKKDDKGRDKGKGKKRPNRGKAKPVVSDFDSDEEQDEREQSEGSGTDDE

Dmax (BRM degradation, SW1573 cells, Table 2D, read-out: **Dmax (%) (% degraded)): > 75%
DC50 [1]: < 2.5 nM
Compound: Cc1ncsc1-c1ccc([C@H](C)NC(=O)[C@@H]2C[C@@H](O)CN2C(=O)[C@@H](c2cc(N3CCC(OC4CCN(CC5CC(CN6CCC([C@@H](C)n7cc(-c8cc(-c9ccccc9O)nnc8N)cn7)CC6)C5)CC4)CC3)no2)C(C)C)cc1 (single isomer, unassigned) [compound 596]

Compound: Cc1ncsc1-c1ccc([C@H](C)NC(=O)[C@@H]2C[C@@H](O)CN2C(=O)[C@@H](c2cc(OCCCCN3CCN(CCCCOc4cc(N5C6CCC5CN(c5cc(-c7ccccc7O)nnc5N)C6)ccn4)CC3)no2)C(C)C)cc1 [compound 390, (2S,4R)-1-((2R)-2-(3-(4-(4-(4-((4-(3-(3-amino-6-(2-hydroxyphenyl)pyridazin-4-yl)-3,8-diazabicyclo[3.2.1]octan-8-yl)pyridin-2-yl)oxy)butyl)piperazin-1-yl)butoxy)isoxazol-5-yl)-3-methylbutanoyl)-4-hydroxy-N-((S)-1-(4-(4-methylthiazol-5-yl)phenyl)ethyl)pyrrolidine-2-carboxamide]
Dmax [2]: > 75%
DC50 [3]: < 2.5 nM

Compound: Cc1ncsc1-c1ccc(CNC(=O)[C@@H]2C[C@@H](O)CN2C(=O)C(c2cc(OCC=Cc3ccc(OC4CC(Oc5cc(N6C7CC[C@@H]6CN(c6cc(-c8ccccc8O)nnc6N)C7)ccn5)C4)cn3)no2)C(C)C)cc1 (stereo partly drawn) [compound 56, (2S,4R)-1-(2-(3-((3-(5-((1r,3r)-3-((4-(3-(3-amino-6-(2-hydroxyphenyl)pyridazin-4-yl)-3,8-diazabicyclo[3.2.1]octan-8-yl)pyridin-2-yl)oxy)cyclobutoxy)pyridin-2-yl)allyl)oxy)isoxazol-5-yl)-3-methylbutanoyl)-4-hydroxy-N-(4-(4-methylthiazol-5-yl)benzyl)pyrrolidine-2-carboxamide]
DC50 [4]: < 2.5 nM
Dmax (%) (% degraded) (BRM degradation, SW1573 cells, when tested at the top concentration of between 0.3 and 10 μM): A (A > 75)

Compound: CC(C)[C@@H](C(=O)N1C[C@H](O)C[C@H]1C(=O)N[C@@H](C)c1ccc(C#N)cc1)c1cc(OCCN2CCC(O[C@H]3C[C@H](Oc4cc(N5C6CCC5CN(c5cc(-c7ccccc7O)nnc5N)C6)ccn4)C3)CC2)no1 [compound 203, (2S,4R)-1-((2R)-2-(3-(2-(4-((1r,3R)-3-((4-(3-(3-amino-6-(2-hydroxyphenyl)pyridazin-4-yl)-3,8-diazabicyclo[3.2.1]octan-8-yl)pyridin-2-yl)oxy)cyclobutoxy)piperidin-1-yl)ethoxy)isoxazol-5-yl)-3-methylbutanoyl)-N-((S)-1-(4-cyanophenyl)ethyl)-4-hydroxypyrrolidine-2-carboxamide]
DC50 [4]: < 2.5 nM
Dmax [5]: > 75%

Compound: Cc1ncsc1-c1ccc([C@@H](COCC(C)C)NC(=O)[C@@H]2C[C@@H](O)CN2C(=O)[C@@H](c2cc(OCCN3CCN(CCOc4cc(N5C6CCC5CN(c5cc(-c7ccccc7O)nnc5N)C6)ccn4)CC3)no2)C(C)C)cc1 [compound 298, (2S,4R)-1-((2R)-2-(3-(2-(4-(2-((4-(3-(3-amino-6-(2-hydroxyphenyl)pyridazin-4-yl)-3,8-diazabicyclo[3.2.1]octan-8-yl)pyridin-2-yl)oxy)ethyl)piperazin-1-yl)ethoxy)isoxazol-5-yl)-3-methylbutanoyl)-4-hydroxy-N-((S)-2-isobutoxy-1-(4-(4-methylthiazol-5-yl)phenyl)ethyl)pyrrolidine-2-carboxamide]
DC50 [4]: < 2.5 nM
Dmax [5]: > 75%

DC50 [4]: > 30 nM
Compound: Cc1ncsc1-c1ccc([C@H](C)NC(=O)[C@@H]2C[C@@H](O)CN2C(=O)[C@H](c2cc(N3CCC4(CC3)CN(CC3CCN(C[C@H]5C[C@H](Oc6cc(N7C8CCC7CN(c7cc(-c9ccccc9O)nnc7N)C8)ccn6)C5)CC3)C4)no2)C(C)C)cc1 [compound 694, (2S,4R)-1-((2S)-2-(3-(2-((1-(((1r,3r)-3-((4-(3-(3-amino-6-(2-hydroxyphenyl)pyridazin-4-yl)-3,8-diazabicyclo[3.2.1]octan-8-yl)pyridin-2-yl)oxy)cyclobutyl)methyl)piperidin-4-yl)methyl)-2,7-diazaspiro[3.5]nonan-7-yl)isoxazol-5-yl)-3-methylbutanoyl)-4-hydroxy-N-((S)-1-(4-(4-methylthiazol-5-yl)phenyl)ethyl)pyrrolidine-2-carboxamide]

Compound: Cc1ncsc1-c1ccc([C@H](C)NC(=O)[C@@H]2C[C@@H](O)CN2C(=O)[C@H](c2cc(OC3CN(CCN4CCC(O[C@H]5C[C@H](Oc6cc(N7C8CCC7CN(c7cc(-c9ccccc9O)nnc7N)C8)ccn6)C5)CC4)C3)no2)C(C)C)cc1 [compound 370, (2S,4R)-1-((2S)-2-(3-((1-(2-(4-((1r,3r)-3-((4-(3-(3-amino-6-(2-hydroxyphenyl)pyridazin-4-yl)-3,8-diazabicyclo[3.2.1]octan-8-yl)pyridin-2-yl)oxy)cyclobutoxy)piperidin-1-yl)ethyl)azetidin-3-yl)oxy)isoxazol-5-yl)-3-methylbutanoyl)-4-hydroxy-N-((S)-1-(4-(4-methylthiazol-5-yl)phenyl)ethyl)pyrrolidine-2-carboxamide]
Dmax [2]: > 75%
DC50 [3]: 10 to 30 nM

Compound: CC[C@H](NC(=O)[C@@H]1C[C@@H](O)CN1C(=O)[C@@H](c1cc(N2CCC(CN3CCC(O[C@H]4C[C@H](Oc5cc(N6C7CCC6CN(c6cc(-c8ccccc8O)nnc6N)C7)ccn5)C4)CC3)CC2)no1)C(C)C)c1ccc(-c2scnc2C)cc1 [compound 654, (2S,4R)-1-((2R)-2-(3-(4-((4-((1r,3r)-3-((4-(3-(3-amino-6-(2-hydroxyphenyl)pyridazin-4-yl)-3,8-diazabicyclo[3.2.1]octan-8-yl)pyridin-2-yl)oxy)cyclobutoxy)piperidin-1-yl)methyl)piperidin-1-yl)isoxazol-5-yl)-3-methylbutanoyl)-4-hydroxy-N-((S)-1-(4-(4-methylthiazol-5-yl)phenyl)propyl)pyrrolidine-2-carboxamide]
DC50 [4]: < 2.5 nM
Dmax [6]: > 75%

Compound: Cc1ncsc1-c1ccc([C@H](C)NC(=O)[C@@H]2C[C@@H](O)CN2C(=O)[C@@H](c2cc(OCCN3CCN(CCOc4cc(N5C6CCC5CN(c5cc(-c7ccccc7O)nnc5N)C6)ccn4)CC3)no2)C(C)C)cc1 [compound 47]
DC50 [4]: < 2.5 nM
Dmax (BRM degradation, SW1573 cells, when tested at the top concentration of between 0.3 and 10 μM, read-out: Dmax (%) (% degraded)): > 75%

Compound: Cc1ncsc1-c1ccc([C@H](C)NC(=O)[C@@H]2C[C@@H](O)CN2C(=O)[C@@H](c2cc(N3CCC(CN4CCN(CC5CC(Oc6cc(N7C8CC[C@@H]7CN(c7cc(-c9ccccc9O)nnc7N)C8)ccn6)C5)CC4)CC3)no2)C(C)C)cc1 (stereo partly drawn) [compound 608, (2S,4R)-1-((2R)-2-(3-(4-((4-(((1r,3r)-3-((4-(3-(3-amino-6-(2-hydroxyphenyl)pyridazin-4-yl)-3,8-diazabicyclo[3.2.1]octan-8-yl)pyridin-2-yl)oxy)cyclobutyl)methyl)piperazin-1-yl)methyl)piperidin-1-yl)isoxazol-5-yl)-3-methylbutanoyl)-4-hydroxy-N-((S)-1-(4-(4-methylthiazol-5-yl)phenyl)ethyl)pyrrolidine-2-carboxamide]
**Dmax (%) (% degraded) (BRM degradation, SW1573 cells, Table 2D): A (A > 75)
DC50 [1]: < 2.5 nM

DC50 [3]: > 30 nM
Compound: Cc1ncsc1-c1ccc([C@H](C)NC(=O)[C@@H]2C[C@@H](O)CN2C(=O)[C@H](c2cc(N3CCC(OC4CCN(C[C@H]5C[C@H](Oc6cc(N7C8CCC7CN(c7cc(-c9ccccc9O)nnc7N)C8)ccn6)C5)CC4)CC3)no2)C(C)C)cc1 [compound 469, (2S,4R)-1-((2S)-2-(3-(4-((1-(((1r,3r)-3-((4-(3-(3-amino-6-(2-hydroxyphenyl)pyridazin-4-yl)-3,8-diazabicyclo[3.2.1]octan-8-yl)pyridin-2-yl)oxy)cyclobutyl)methyl)piperidin-4-yl)oxy)piperidin-1-yl)isoxazol-5-yl)-3-methylbutanoyl)-4-hydroxy-N-((S)-1-(4-(4-methylthiazol-5-yl)phenyl)ethyl)pyrrolidine-2-carboxamide]

Compound: Cc1ncsc1-c1ccc([C@H](C)NC(=O)[C@@H]2C[C@@H](O)CN2C(=O)[C@H](c2cc(N3CCC(C(C)N4CCC(O[C@H]5C[C@H](Oc6cc(N7C8CCC7CN(c7cc(-c9ccccc9O)nnc7N)C8)ccn6)C5)CC4)CC3)no2)C(C)C)cc1 (stereo partly drawn) [compound 643, (2S,4R)-1-((2S)-2-(3-(4-(1-(4-((1r,3r)-3-((4-(3-(3-amino-6-(2-hydroxyphenyl)pyridazin-4-yl)-3,8-diazabicyclo[3.2.1]octan-8-yl)pyridin-2-yl)oxy)cyclobutoxy)piperidin-1-yl)ethyl)piperidin-1-yl)isoxazol-5-yl)-3-methylbutanoyl)-4-hydroxy-N-((S)-1-(4-(4-methylthiazol-5-yl)phenyl)ethyl)pyrrolidine-2-carboxamide]
DC50 [4]: < 2.5 nM
Dmax [6]: > 75%

Compound: Cc1ncsc1-c1ccc([C@H](C)NC(=O)[C@H]2C[C@H](O)CN2C(=O)C(c2cc(OCCN3CCC(O[C@H]4C[C@H](Oc5cc(N6C7CCC6CN(c6cc(-c8ccccc8O)nnc6N)C7)ccn5)C4)CC3)no2)C(C)C)cn1 (stereo partly drawn) [compound 254, (2R,4S)-1-(2-(3-(2-(4-((1r,3r)-3-((4-(3-(3-amino-6-(2-hydroxyphenyl)pyridazin-4-yl)-3,8-diazabicyclo[3.2.1]octan-8-yl)pyridin-2-yl)oxy)cyclobutoxy)piperidin-1-yl)ethoxy)isoxazol-5-yl)-3-methylbutanoyl)-4-hydroxy-N-((S)-1-(6-(4-methylthiazol-5-yl)pyridin-3-yl)ethyl)pyrrolidine-2-carboxamide]
DC50 [4]: > 30 nM

Reference: patent US12539292B2, “BRM targeting compounds and associated methods of use” (Arvinas Operations, Inc., priority 2018, dated 2026)
